{
  "source": "PubChem BioAssay AID328",
  "about": "(DTP/NCI, 2004)",
  "system": "BDF1 mice, P388 leukemia ip, median survival T/C",
  "assay": "NCI In Vivo Anticancer Drug Screen. Data for tumor model P388 Leukemia (intraperitoneal) in B6D2F1 (BDF1) mice",
  "settings": "endpoint: median survival time, higher = longer survival",
  "outline": "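Vehicle-dosed animals serve as the reference; survival of compound-dosed, tumour-implanted mice is divided by it.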",
  "key": {"[1]": {"settings": "dose: 100.0 mg/kg/injection, schedule: Q01DX009 (ip), vehicle: saline with Tween-80"}, "[2]": {"settings": "dose: 100.0 mg/kg/injection, schedule: Q01DX009 (ip), vehicle: Klucel (hydroxypropylcellulose) (HPC)"}, "[3]": {"settings": "dose: 100.0 mg/kg/injection, schedule: Q04DX003 (ip), vehicle: Klucel (hydroxypropylcellulose) (HPC)"}, "[4]": {"settings": "dose: 200.0 mg/kg/injection, schedule: Q01DX009 (ip), vehicle: Klucel (hydroxypropylcellulose) (HPC)"}, "[5]": {"settings": "dose: 200.0 mg/kg/injection, schedule: Q04DX003 (ip), vehicle: Klucel (hydroxypropylcellulose) (HPC)"}, "[6]": {"settings": "dose: 400.0 mg/kg/injection, schedule: Q01DX009 (ip), vehicle: Klucel (hydroxypropylcellulose) (HPC)"}, "[7]": {"settings": "dose: 400.0 mg/kg/injection, schedule: Q04DX003 (ip), vehicle: Klucel (hydroxypropylcellulose) (HPC)"}, "[8]": {"settings": "dose: 25.0 mg/kg/injection, schedule: Q01DX009 (ip), vehicle: saline with Tween-80"}, "[9]": {"settings": "dose: 200.0 mg/kg/injection, schedule: Q01DX009 (ip), vehicle: saline with Tween-80"}},
  "note": "Inconclusive results and toxic doses are left out.",
  "data": [
    {"molecule": "COC(=S)SCN(CSC(=S)OC)c1ccccc1Cl", "values": [
      {"measurement": "T/C", "setting": "[1]", "result": "118 % of control"},
      {"measurement": "T/C", "setting": "dose: 400.0 mg/kg/injection, schedule: Q01DX009 (ip), vehicle: saline with Tween-80", "result": "159 % of control"},
      {"measurement": "T/C", "setting": "dose: 600.0 mg/kg/injection, schedule: Q01DX009 (ip), vehicle: saline with Tween-80", "result": "158 % of control"}
    ]},
    {"molecule": "COC(=O)CCN(c1ccccc1)S(=O)(=O)c1ccc(C)cc1", "values": [
      {"measurement": "T/C", "setting": "[2]", "result": "104 % of control"},
      {"measurement": "T/C", "setting": "[3]", "result": "100 % of control"},
      {"measurement": "T/C", "setting": "[4]", "result": "104 % of control"},
      {"measurement": "T/C", "setting": "[5]", "result": "100 % of control"},
      {"measurement": "T/C", "setting": "[6]", "result": "95 % of control"},
      {"measurement": "T/C", "setting": "[7]", "result": "100 % of control"}
    ]},
    {"molecule": "CCN(CCO)CCNc1ccc(C)c2sc3ccccc3c(=O)c12", "values": [
      {"measurement": "T/C", "setting": "[8]", "result": "122 % of control"},
      {"measurement": "T/C", "setting": "dose: 66.0 mg/kg/injection, schedule: Q04DX003 (ip), vehicle: saline with Tween-80", "result": "103 % of control"},
      {"measurement": "T/C", "setting": "[1]", "result": "104 % of control"},
      {"measurement": "T/C", "setting": "dose: 100.0 mg/kg/injection, schedule: Q04DX003 (ip), vehicle: saline with Tween-80", "result": "117 % of control"}
    ]},
    {"molecule": "CCC(=O)Nc1cc(Cl)ccc1C", "values": [
      {"measurement": "T/C", "setting": "dose: 50.0 mg/kg/injection, schedule: Q04DX003 (ip), vehicle: Klucel (hydroxypropylcellulose) (HPC)", "result": "118 % of control"},
      {"measurement": "T/C", "setting": "[2]", "result": "109 % of control"},
      {"measurement": "T/C", "setting": "[3]", "result": "109 % of control"},
      {"measurement": "T/C", "setting": "[4]", "result": "90 % of control"},
      {"measurement": "T/C", "setting": "[5]", "result": "104 % of control"},
      {"measurement": "T/C", "setting": "[6]", "result": "90 % of control"},
      {"measurement": "T/C", "setting": "[7]", "result": "100 % of control"}
    ]},
    {"molecule": "O=C(/C=C/c1ccccc1)NC(CO)Cc1ccccc1", "note": "(stereo unspecified)", "values": [
      {"measurement": "T/C", "setting": "dose: 6.25 mg/kg/injection, schedule: Q01DX009 (ip), vehicle: saline with Tween-80", "result": "90 % of control"},
      {"measurement": "T/C", "setting": "dose: 12.5 mg/kg/injection, schedule: Q01DX009 (ip), vehicle: saline with Tween-80", "result": "92 % of control"},
      {"measurement": "T/C", "setting": "[8]", "result": "101 % of control"},
      {"measurement": "T/C", "setting": "[1]", "result": "100 % of control"},
      {"measurement": "T/C", "setting": "[9]", "result": "100 % of control"}
    ]},
    {"molecule": "CN(C)c1ccc(/C=C\\c2ccnc3c([N+](=O)[O-])cccc23)cc1", "values": [
      {"measurement": "T/C", "setting": "dose: 50.0 mg/kg/injection, schedule: Q01DX009 (ip), vehicle: saline with Tween-80", "result": "115 % of control"},
      {"measurement": "T/C", "setting": "[1]", "result": "97 % of control"},
      {"measurement": "T/C", "setting": "[9]", "result": "92 % of control"}
    ]},
    {"molecule": "CN(C)C1C(=O)C(C(=O)NCN2CCOB(c3ccccc3)OCC2)=C(O)C2(O)C(O)=C3C(=O)C4C(O)=CC=CC4C(C)(O)C3CC12", "note": "(stereo unspecified)", "values": [
      {"measurement": "T/C", "setting": "dose: 200.0 mg/kg/injection, schedule: Q04DX002 (ip), vehicle: saline with Tween-80", "result": "93 % of control"},
      {"measurement": "T/C", "setting": "dose: 400.0 mg/kg/injection, schedule: Q04DX002 (ip), vehicle: saline with Tween-80", "result": "112 % of control"}
    ]},
    {"molecule": "CC(C)CCCC(C)C1CCC2C3CC=C4CC(O)CCC4(C)C3CCC12C", "note": "(stereo unspecified) (tested in a mixture with another compound)", "values": [
      {"measurement": "T/C", "setting": "dose: 25.0 mg/kg/injection, schedule: Q04DX003 (ip), vehicle: alcohol", "result": "90 % of control"},
      {"measurement": "T/C", "setting": "dose: 50.0 mg/kg/injection, schedule: Q04DX003 (ip), vehicle: alcohol", "result": "100 % of control"},
      {"measurement": "T/C", "setting": "dose: 56.25 mg/kg/injection, schedule: Q01DX009 (ip), vehicle: Klucel (hydroxypropylcellulose) (HPC)", "result": "95 % of control"},
      {"measurement": "T/C", "setting": "dose: 100.0 mg/kg/injection, schedule: Q04DX003 (ip), vehicle: alcohol", "result": "105 % of control"},
      {"measurement": "T/C", "setting": "dose: 112.5 mg/kg/injection, schedule: Q01DX009 (ip), vehicle: Klucel (hydroxypropylcellulose) (HPC)", "result": "100 % of control"},
      {"measurement": "T/C", "setting": "dose: 150.0 mg/kg/injection, schedule: Q04DX003 (ip), vehicle: Klucel (hydroxypropylcellulose) (HPC)", "result": "100 % of control"},
      {"measurement": "T/C", "setting": "dose: 225.0 mg/kg/injection, schedule: Q01DX009 (ip), vehicle: Klucel (hydroxypropylcellulose) (HPC)", "result": "104 % of control"},
      {"measurement": "T/C", "setting": "dose: 225.0 mg/kg/injection, schedule: Q04DX003 (ip), vehicle: Klucel (hydroxypropylcellulose) (HPC)", "result": "104 % of control"}
    ]},
    {"molecule": "CCc1ccccc1OS(=O)(=O)c1ccccc1[N+](=O)[O-]", "values": [
      {"measurement": "T/C", "setting": "[3]", "result": "100 % of control"},
      {"measurement": "T/C", "setting": "[5]", "result": "100 % of control"},
      {"measurement": "T/C", "setting": "[7]", "result": "100 % of control"}
    ]}
  ]
}
